Test results: patent US6479044B1, “Antibacterial solution” (Colgate-Palmolive Company, priority 2001, dated 2002)

Experiment: Resistance to rinse by colorimetry (Indigotine dye revelation, chromameter)
Format: physicochemical
Settings: 50 μl on ceramic tile, rinsed 2×10 ml deionized water, Indigotine dye 0.033%
Description: Methodology: 50 μl of each solution in deionized water is deposited on a ceramic tile 2.5 cm×2.5 cm. After drying at room temperature, the treated tiles are rinsed with 2×10 ml deionized water. The revelation is then performed with 200 μl lndigotine dye ex. Wackherr (Cl 73015) at 0.033% in deionized water (3 minutes contact). After removing the excess of dye with 10 ml deionized water and drying of the surface, the coloration intensity is measured with a chromameter (Minolta CR200™). The higher the ΔE, the higher the difference of coloration versus the reference tile (no treatment, no contact with the dye). The coloration is the signal of the persistence of the PHMB on the surface after rinsing.

SMILES: CCCCCCCCCCCCOS(=O)(=O)[O-].[Na+] [SLS 0.1%, sodium lauryl sulfate]
- ΔE (coloration versus reference tile): 0.5
